Results from ChEMBL document CHEMBL3797164, “Transfer of SAR information from hypotensive indazole to indole derivatives acting at α-adrenergic receptors: In vitro and in vivo studies” (Eur J Med Chem, 2016).

Key:
Nischarin = Nischarin (Rattus norvegicus, UniProt Q4G017); test: Displacement of [3H]clonidine from Imidazoline receptor 1 in Sprague-Dawley rat kidney P2 membranes after […] by liquid scintillation counting
Rattus norvegicus [1] = test: Antihypertensive activity in anesthetized Wistar rat assessed as change in mean arterial blood pressure at 0.1 mg/kg, iv administered as bolus dose after 60 mins (reference value: -3.5 mmHg); format: functional
[2] = molecular target: T1, Adrenergic receptor alpha-1 (Rattus norvegicus, UniProt P15823+P23944+P43140); test: Displacement of [3H]prazosine from Alpha-1 adrenergic receptor in Sprague-Dawley rat brain P2 membranes after […] by liquid scintillation counting
T1 sequence (P15823 whole entry): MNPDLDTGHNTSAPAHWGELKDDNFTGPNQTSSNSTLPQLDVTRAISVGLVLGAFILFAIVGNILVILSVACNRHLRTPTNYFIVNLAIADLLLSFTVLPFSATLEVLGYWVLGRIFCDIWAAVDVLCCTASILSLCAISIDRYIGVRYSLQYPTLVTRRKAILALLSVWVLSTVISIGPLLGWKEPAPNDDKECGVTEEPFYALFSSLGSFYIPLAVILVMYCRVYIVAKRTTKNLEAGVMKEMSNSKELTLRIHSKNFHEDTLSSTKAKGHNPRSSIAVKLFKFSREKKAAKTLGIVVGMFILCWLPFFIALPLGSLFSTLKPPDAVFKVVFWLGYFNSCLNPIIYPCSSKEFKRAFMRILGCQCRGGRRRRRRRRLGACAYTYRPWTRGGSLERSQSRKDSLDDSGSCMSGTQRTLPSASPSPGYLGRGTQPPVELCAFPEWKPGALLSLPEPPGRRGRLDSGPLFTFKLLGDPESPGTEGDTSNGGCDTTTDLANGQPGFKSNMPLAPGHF
T1 sequence (P23944 whole entry): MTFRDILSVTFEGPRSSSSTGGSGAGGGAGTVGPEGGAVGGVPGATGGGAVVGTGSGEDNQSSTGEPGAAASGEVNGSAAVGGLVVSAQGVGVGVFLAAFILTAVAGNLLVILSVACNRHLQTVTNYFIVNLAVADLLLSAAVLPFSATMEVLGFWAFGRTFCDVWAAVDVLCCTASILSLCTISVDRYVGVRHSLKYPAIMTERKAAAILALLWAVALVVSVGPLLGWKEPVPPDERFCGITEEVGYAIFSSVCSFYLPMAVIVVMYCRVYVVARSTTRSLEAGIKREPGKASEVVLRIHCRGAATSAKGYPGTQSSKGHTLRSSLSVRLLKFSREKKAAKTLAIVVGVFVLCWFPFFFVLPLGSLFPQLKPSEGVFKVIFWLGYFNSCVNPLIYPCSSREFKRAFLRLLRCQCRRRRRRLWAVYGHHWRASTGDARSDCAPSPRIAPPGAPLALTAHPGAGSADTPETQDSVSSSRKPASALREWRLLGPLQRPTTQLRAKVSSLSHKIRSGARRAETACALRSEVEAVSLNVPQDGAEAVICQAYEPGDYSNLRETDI
T1 sequence (P43140 whole entry): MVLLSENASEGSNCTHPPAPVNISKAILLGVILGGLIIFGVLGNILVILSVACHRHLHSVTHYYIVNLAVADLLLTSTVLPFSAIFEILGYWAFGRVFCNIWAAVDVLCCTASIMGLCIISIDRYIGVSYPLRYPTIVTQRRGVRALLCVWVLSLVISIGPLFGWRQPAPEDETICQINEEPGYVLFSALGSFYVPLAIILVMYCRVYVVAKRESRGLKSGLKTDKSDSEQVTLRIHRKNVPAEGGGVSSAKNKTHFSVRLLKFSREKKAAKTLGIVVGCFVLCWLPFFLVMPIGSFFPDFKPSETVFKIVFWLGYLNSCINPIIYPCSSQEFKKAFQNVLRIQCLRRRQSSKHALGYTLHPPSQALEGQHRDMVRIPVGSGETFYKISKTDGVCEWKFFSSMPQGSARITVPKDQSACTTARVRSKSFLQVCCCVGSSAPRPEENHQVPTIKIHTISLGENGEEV

Rattus norvegicus [3] = test: Antihypertensive activity in anesthetized Wistar rat assessed as change in heart rate at 0.1 mg/kg, iv administered as bolus dose after 30 mins (reference value: -8.6 […]); format: functional

Sequence of Nischarin (Q4G017 whole entry): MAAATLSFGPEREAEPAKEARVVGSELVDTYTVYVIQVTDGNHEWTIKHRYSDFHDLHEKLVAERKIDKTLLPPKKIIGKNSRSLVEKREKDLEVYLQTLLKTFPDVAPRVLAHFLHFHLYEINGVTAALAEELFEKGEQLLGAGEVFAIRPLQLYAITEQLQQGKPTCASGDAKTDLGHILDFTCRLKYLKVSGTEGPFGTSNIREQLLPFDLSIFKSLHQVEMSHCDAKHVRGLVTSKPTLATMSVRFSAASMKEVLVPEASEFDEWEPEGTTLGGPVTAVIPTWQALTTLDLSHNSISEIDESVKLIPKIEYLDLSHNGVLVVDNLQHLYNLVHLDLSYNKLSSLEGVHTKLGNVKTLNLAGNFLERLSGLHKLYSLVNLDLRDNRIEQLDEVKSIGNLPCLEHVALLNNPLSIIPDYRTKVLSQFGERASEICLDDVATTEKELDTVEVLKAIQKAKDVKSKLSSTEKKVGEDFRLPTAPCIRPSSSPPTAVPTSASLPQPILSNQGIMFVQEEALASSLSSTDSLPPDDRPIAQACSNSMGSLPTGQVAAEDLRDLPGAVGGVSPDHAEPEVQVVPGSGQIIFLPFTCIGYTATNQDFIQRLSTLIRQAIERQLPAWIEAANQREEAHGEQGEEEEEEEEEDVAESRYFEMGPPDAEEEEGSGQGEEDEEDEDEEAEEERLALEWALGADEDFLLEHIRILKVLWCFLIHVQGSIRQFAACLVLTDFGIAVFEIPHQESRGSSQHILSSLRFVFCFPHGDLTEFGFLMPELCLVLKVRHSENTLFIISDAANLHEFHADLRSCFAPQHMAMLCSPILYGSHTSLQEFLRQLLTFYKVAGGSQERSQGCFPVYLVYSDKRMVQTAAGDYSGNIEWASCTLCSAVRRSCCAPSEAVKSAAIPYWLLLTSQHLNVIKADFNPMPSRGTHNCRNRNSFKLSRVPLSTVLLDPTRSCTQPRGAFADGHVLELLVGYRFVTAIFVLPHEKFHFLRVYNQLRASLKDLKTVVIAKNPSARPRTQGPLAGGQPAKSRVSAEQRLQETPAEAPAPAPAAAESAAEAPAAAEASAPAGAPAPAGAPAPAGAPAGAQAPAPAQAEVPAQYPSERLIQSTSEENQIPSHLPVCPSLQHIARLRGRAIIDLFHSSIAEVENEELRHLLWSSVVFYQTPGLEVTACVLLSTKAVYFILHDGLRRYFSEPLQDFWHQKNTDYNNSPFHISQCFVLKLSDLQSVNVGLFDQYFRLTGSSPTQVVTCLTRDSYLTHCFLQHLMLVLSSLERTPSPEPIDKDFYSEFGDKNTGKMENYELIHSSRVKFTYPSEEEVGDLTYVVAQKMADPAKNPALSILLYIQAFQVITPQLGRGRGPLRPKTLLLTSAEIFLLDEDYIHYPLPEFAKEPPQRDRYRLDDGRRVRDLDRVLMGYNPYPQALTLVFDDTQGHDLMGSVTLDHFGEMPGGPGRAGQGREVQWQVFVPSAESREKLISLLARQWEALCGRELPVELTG

| Structure (SMILES) | Ki (Nischarin) | Activity (Rattus norvegicus [1]) | Ki [2] | Activity (Rattus norvegicus [3]) |
| --- | --- | --- | --- | --- |
| Cl.c1ccc2c(c1)ccn2CC1=NCCN1 | 81400 nM | -38.5 mmHg | 61.4 nM | -105.3 bpm |
| Cl.Clc1cccc2ccn(CC3=NCCN3)c12 | 10300 nM | -61.2 mmHg | 6.82 nM | -125.4 bpm |
| Br.Cc1cccc2ccn(CC3=NCCN3)c12 | 1000 nM | -40.9 mmHg | 24.97 nM | -111.7 bpm |
